Common to all, as to assay: NCI tumour cell line growth inhibition, 48 h
The test system of assay [1] is DLD-1 colon.
The subject of assay [2] is DMS 114 small cell lung.
The test system of assay [3] is DMS 273 small cell lung.
Assay [4] deals with KM20L2 colon.
The test system of assay [5] is LXFL 529 NSCLC.
The test system of assay [6] is HOP-18 NSCLC.
For assay [7], the system named is BT-549 breast.
Assay [8] concerns NCI/ADR-RES ovarian.
In assay [9] the test system is PC-3 prostate.
Assay [10] concerns T-47D breast.

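In this assay, cells in 96-well plates receive the compound at five concentrations for 48 hours. Endpoints are linearly interpolated between the surrounding concentrations. GI50: concentration for 50% inhibition of growth. TGI: concentration producing complete growth inhibition.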

Take `O=c1cccccc1NCCCCCCCCCNc1cccccc1=O`: the TGI in assay [1] is over 100 µM; in [2] it was 19.1 µM; in assay [3], 32.6 µM; in assay [4], 77.5 µM; in assay [5], 24.4 µM.
As for `O=C1C(=O)N(C2C3CC4CC(C3)CC2C4)C(=O)C(=O)C1c1nc2ccccc2o1` (configuration not stated), the TGI in assay [1] was 92.9 µM; in assay [2], 44.7 µM; in assay [3], over 100 µM; in [6], over 100 µM; in assay [4] it was over 100 µM; in assay [5], over 100 µM.
As for `CCOC(=O)N1C2C=C(C)C(C3C(C)C(=O)N31)N(C(=O)c1ccccc1)O2` (configuration not stated), the TGI in assay [1], in [2], in [3], in [6] and in assay [5] was over 100 µM in each case.
`N#Cc1ccccc1NC(=O)c1ccccc1`: the TGI in assay [1], in assay [3], in [6] and in assay [4] was over 100 µM each time.
In the case of `COc1ccc(COCC(Cn2ccnc2)OCc2ccc(C(=O)O)cc2)cc1` (configuration not stated), the TGI in assay [1], in assay [2], in [4] and in [5] was over 100 µM in each case.
As for `CCOc1ccc(NC(=O)CC2SC(N)=NC2=O)cc1` (configuration not stated), the TGI in [1], in assay [2], in [4] and in [5] was over 100 µM throughout.
As for `FC(F)(F)c1ccc2nc(Nc3ccc(Cl)c(Cl)c3)c(-c3ccccc3)nc2c1`, the TGI in assay [3], in [6], in assay [4] and in [5] was over 100 µM in each case.
`Clc1ccc(CN2COc3c(cc(Cl)c4cccnc34)C2)cc1`: the TGI in [1] is 13.6 µM; in [2], 3.73 µM; in assay [3], 3.53 µM; in assay [6], 16.4 µM; in assay [4], 27.5 µM; in [5], 2.71 µM.
Consider `COc1cc(Oc2c(O)c(C)c(OC)c(C(C)=O)c2O)c(C(C)=O)c(O)c1C`, for which the TGI in assay [1], in assay [2], in [3], in [4] and in [5] was over 100 µM in each case.
Consider `CC1CC2(CC[C@@H]1O)OCCO2` (some centres not stated), for which the TGI in assay [1], in assay [3] and in assay [5] was over 100 µM in each case.
`O=C(O)c1c[nH]cc1C(=O)O`: the TGI in assay [1], in [2], in [3], in assay [4] and in assay [5] was over 100 µM in each case.
`O=C1c2ccccc2C(=O)C1C(c1ccc([N+](=O)[O-])cc1)C1C(=O)c2ccccc2C1=O`: the TGI in [1], in assay [3], in [6], in assay [4] and in [5] was over 100 µM throughout.
With `O=C(Nc1cc(Cl)c(Cl)cc1Cl)C(=O)C(C(=O)c1ccc(Cl)c(Cl)c1)C1OC(=O)c2ccccc21` (configuration not stated), the TGI in [1] came out at 23.4 µM; in assay [2] it was 39.5 µM; in assay [3], 44.5 µM; in [4] it was 33 µM; in [5], 22.9 µM.
On to `CC(=O)C1=C([O-])C(C)OC1=O.CC(=O)C1=C([O-])C(C)OC1=O.[NH-]C1CCCC[C@H]1[NH-].[Pt+4]` (configuration not stated), for which the GI50 in assay [1] is over 100 µM; in assay [3] it was 44.9 µM; in assay [4] it was 66.7 µM; in assay [5], 36.2 µM. Further, the TGI in [1], in [3], in [4] and in assay [5] was over 100 µM each time.
In the case of `COC(=O)[C@]1(C)CCC[C@@]2(C)C1CCC1=C[C@@]3(C(C)C)CC[C@]12OO3` (some centres not stated), the figures for the TGI in assay [1], in assay [3] and in [5] were 71.5 µM, 87.2 µM and 74.1 µM, respectively.
Regarding `CC1=NN(C(=O)c2ccc(Cl)cc2)C(=O)/C1=C/c1cccc([N+](=O)[O-])c1`, the TGI in assay [1], in assay [2], in assay [4] and in assay [5] was over 100 µM throughout.
For `CN(C)c1ccc(N=Nc2c([O-])ccc3ccccc23)cc1.[C-]#[O+].[C-]#[O+].[Ir]`, the GI50 in [7] was 19.6 µM; in [1], 22.5 µM; in assay [2] it was 20.6 µM; in assay [6], 17.2 µM; in [4] it was 26 µM; in assay [5] it was 17.2 µM. The values for the GI50 in [8] and in assay [9] were 19.3 µM and 17.7 µM, respectively. Moreover, the TGI came to 56.7 µM in assay [7]; 47.8 µM in [1]; 36 µM in assay [2]; 37.2 µM in assay [6]; 59 µM in assay [4]; 31.2 µM in [5]. Further, the TGI in [8] was 57.7 µM; in [9], 34.5 µM.
On to `CC(C)=CC(=O)CC(=O)C(=O)Nc1ccc(Cl)c(Cl)c1`, for which the TGI in [1], in assay [2], in assay [3], in [4] and in assay [5] was over 100 µM in each case.
For the compound `O=C(O)CCC1CCc2cccc3occ1c23` (configuration not stated), the TGI in [1], in [2], in [3], in assay [4] and in assay [5] was over 100 µM in each case.
Consider `Cc1c2ccncc2c(C)c2c1[nH]c1ccc(OC(C)(C)C)cc12`, for which the TGI was determined as 10.4 µM in assay [1]; 4.29 µM in [2]; 4.36 µM in assay [3]; 11.1 µM in [4]; 5.5 µM in [5].
On to `COC1CC(n2cnc3c(N)ncnc32)OC1CO` (configuration not stated), for which the TGI in assay [1], in assay [2], in assay [3], in [4] and in assay [5] was over 100 µM throughout.
Turning to `CCOC(=O)/C(C#N)=C1\N[C@H](C(=O)OCC)CO1`, the TGI in assay [1], in [6], in assay [4] and in [5] was over 100 µM each time.
With `N/N=C(\Cc1ccccc1)NN=C(N)N`, the TGI in assay [1], in assay [6] and in assay [5] was over 100 µM each time.
For the compound `NCc1ccc(-n2c(-c3nonc3N)nc3cnccc32)cc1`, the GI50 in assay [7] is 0.964 µM; in assay [8] it was over 25 µM; in assay [9], over 19.3 µM; in [10], 8.48 µM. The TGI in assay [7], in [8], in assay [9] and in assay [10] was over 25 µM in each case.
With `CC(C)[C@@H](COC(C)(C)C)N=CN1CCc2c([nH]c3ccccc23)C1`, the TGI in assay [1], in [2], in [3], in assay [4] and in assay [5] was over 100 µM throughout.
As to `Oc1cc(Cl)ccc1Oc1ccc(Cl)cc1Cl`, the GI50 in [7] was 2.62 µM; in [8], 2.81 µM; in assay [9], 2.78 µM; in assay [10], 3.03 µM. In addition, the TGI stood at 5.95 µM in assay [7], 7.93 µM in assay [8], 8.43 µM in assay [9] and 9.94 µM in assay [10].
In the case of `O=C(Cc1ccccc1)N/N=C(\C1=Nc2ccc([N+](=O)[O-])cc2NC1O)C(O)c1ccc([N+](=O)[O-])cc1` (configuration not stated), the TGI in assay [1], in assay [6], in assay [4] and in assay [5] was over 100 µM each time.
Turning to `C/C=C(/CCCCNCCCC)[Si](C)(C)C`, the TGI worked out at 29.8 µM in assay [1]; 33.5 µM in [2]; 38.2 µM in assay [3]; 21.7 µM in [4]; 29.3 µM in assay [5].
Turning to `C[C@H](CSC(=O)c1ccccc1)C(=O)N1c2ccccc2C[C@H]1C(=O)O`, the TGI in assay [7], in assay [8], in [9] and in assay [10] was over 100 µM each time.
`CS(=O)(=O)Nc1cc(-c2ccc3ncnc(Nc4ccc5c(cnn5Cc5ccc(F)cc5)c4)c3c2)cnc1Cl`: the GI50 is 0.957 µM in [7], 17 µM in assay [8], 1.8 µM in assay [9] and 0.256 µM in assay [10]. The TGI in assay [7] was 6.47 µM; in [8], over 100 µM; in assay [9] it was 8.68 µM; in assay [10], 2.23 µM.
Take `CCc1c[nH]c2ncnc(N3CC[C@@](N)(CNC(=O)c4ccc(F)cc4F)C3)c12`: the GI50 is 17 µM in [7], 83.9 µM in assay [8], 35.4 µM in assay [9] and 30.8 µM in assay [10]. For the same compound, the TGI is 55.3 µM in [7], over 100 µM in assay [8], over 100 µM in assay [9] and over 100 µM in assay [10].
For the compound `COc1cc2cc(Oc3ccc(NC(=O)c4ccc(Cl)c(C(F)(F)F)c4)cc3)c(C)nc2cc1OC`, the GI50 in [7] was 8.86 µM; in assay [8], 4.21 µM; in assay [9], 4.3 µM; in [10], 5.69 µM. The TGI in [7] was 70.2 µM; in [8], over 100 µM; in assay [9], over 100 µM; in assay [10], 99.6 µM.

For the origin of these results see PubChem BioAssay (NCI).
